Results as given in ChEMBL document CHEMBL1201862, “PubChem BioAssay data set” (2004).
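Step 1: Grow cells in 96-well plates. Step 2: Expose to compound for 48 hours at 5 concentrations. Step 3: Interpolate endpoints linearly; if unreached, use highest concentration. GI50 is the concentration that inhibits growth by half.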 Active and inactive are the calls of the source. No stated cut-off is given here; in the data, active = GI50 up to about 1.1 µM and inactive = higher.

What was measured:
Experiment in all cases: DTP human tumour cell line panel, 48 h
MCF7 = tested on: MCF7
EKVX = tested on: EKVX
U-251 = tested on: U-251
SNB-19 = tested on: SNB-19
UACC-62 = tested on: UACC-62
RXF 393 = tested on: RXF 393
OVCAR-3 = tested on: OVCAR-3
BT-549 = tested on: BT-549
M14 = tested on: M14
SW-620 = tested on: SW-620
786-0 = tested on: 786-0
SK-OV-3 = tested on: SK-OV-3
IGROV-1 = tested on: IGROV-1
A549 = tested on: A549
NCI-H522 = tested on: NCI-H522
COLO 205 = tested on: COLO 205
TK-10 = tested on: TK-10
ACHN = tested on: ACHN
SN12C = tested on: SN12C
DU-145 = tested on: DU-145
OVCAR-8 = tested on: OVCAR-8
HCT-116 = tested on: HCT-116
SF-295 = tested on: SF-295
HCT-15 = tested on: HCT-15
SK-MEL-5 = tested on: SK-MEL-5
HOP-92 = tested on: HOP-92
A498 = tested on: A498
CCRF-CEM = tested on: CCRF-CEM
SNB-75 = tested on: SNB-75
CAKI-1 = tested on: CAKI-1
MDA-N = tested on: MDA-N
OVCAR-4 = tested on: OVCAR-4
SF-268 = tested on: SF-268
SK-MEL-28 = tested on: SK-MEL-28
NCI-H226 = tested on: NCI-H226
HT-29 = tested on: HT-29
HOP-62 = tested on: HOP-62
MDA-MB-435 = tested on: MDA-MB-435
HL-60 = tested on: HL-60
UACC-257 = tested on: UACC-257
MDA-MB-231 = tested on: MDA-MB-231
NCI-H460 = tested on: NCI-H460
UO-31 = tested on: UO-31
LOX IMVI = tested on: LOX IMVI
OVCAR-5 = tested on: OVCAR-5
SK-MEL-2 = tested on: SK-MEL-2
NCI-H23 = tested on: NCI-H23
Malme-3M = tested on: Malme-3M
PC-3 = tested on: PC-3
Hs-578T = tested on: Hs-578T
SF-539 = tested on: SF-539
NCI/ADR-RES = tested on: NCI/ADR-RES
K562 = tested on: K562
HCC 2998 = tested on: HCC 2998
KM12 = tested on: KM12
RPMI-8226 = tested on: RPMI-8226

Structure (SMILES): Cc1ccc(-n2cc(-c3ccc(Cl)cc3)c3c(=N)n(N)cnc32)cc1
- GI50 (MCF7): 11 µM (inactive)
- GI50 (EKVX): 16.4 µM (inactive)
- GI50 (U-251): 10.5 µM (inactive)
- GI50 (SNB-19): 11.8 µM (inactive)
- GI50 (UACC-62): 13.2 µM (inactive)
- GI50 (RXF 393): 4.69 µM (inactive)
- GI50 (OVCAR-3): 13.5 µM (inactive)
- GI50 (BT-549): 16.9 µM (inactive)
- GI50 (M14): 5.75 µM (inactive)
- GI50 (SW-620): 12.4 µM (inactive)
- GI50 (786-0): 11.9 µM (inactive)
- GI50 (SK-OV-3): 17.4 µM (inactive)
- GI50 (IGROV-1): 12 µM (inactive)
- GI50 (A549): 15.1 µM (inactive)
- GI50 (NCI-H522): 14.5 µM (inactive)
- GI50 (COLO 205): 8.2 µM (inactive)
- GI50 (TK-10): 15.3 µM (inactive)
- GI50 (ACHN): 16.2 µM (inactive)
- GI50 (SN12C): 16 µM (inactive)
- GI50 (DU-145): 17.5 µM (inactive)
- GI50 (OVCAR-8): 14.8 µM (inactive)
- GI50 (HCT-116): 7.8 µM (inactive)
- GI50 (SF-295): 15.4 µM (inactive)
- GI50 (HCT-15): 15.6 µM
- GI50 (SK-MEL-5): 7.43 µM (inactive)
- GI50 (HOP-92): 9.95 µM (inactive)
- GI50 (A498): 15.9 µM (inactive)
- GI50 (CCRF-CEM): 11.3 µM (inactive)
- GI50 (SNB-75): 12.6 µM (inactive)
- GI50 (CAKI-1): 18.5 µM (inactive)
- GI50 (MDA-N): 11.5 µM (inactive)
- GI50 (OVCAR-4): 10.5 µM (inactive)
- GI50 (SF-268): 12.7 µM (inactive)
- GI50 (SK-MEL-28): 13.8 µM (inactive)
- GI50 (NCI-H226): 21 µM (inactive)
- GI50 (HT-29): 8.24 µM (inactive)
- GI50 (HOP-62): 14.2 µM (inactive)
- GI50 (MDA-MB-435): 11.1 µM (inactive)
- GI50 (HL-60): 7.83 µM (inactive)
- GI50 (UACC-257): 9.93 µM (inactive)
- GI50 (MDA-MB-231): 12.6 µM (inactive)
- GI50 (NCI-H460): 10.3 µM (inactive)
- GI50 (UO-31): 11.7 µM (inactive)
- GI50 (LOX IMVI): 14.7 µM (inactive)
- GI50 (OVCAR-5): 14.7 µM (inactive)
- GI50 (SK-MEL-2): 13.6 µM (inactive)
- GI50 (NCI-H23): 16.1 µM (inactive)
- GI50 (Malme-3M): 13.2 µM (inactive)
- GI50 (PC-3): 6.41 µM (inactive)
- GI50 (Hs-578T): 3.71 µM (inactive)
- GI50 (SF-539): 13.4 µM (inactive)
- GI50 (NCI/ADR-RES): 13.1 µM (inactive)
- GI50 (K562): 6.46 µM (inactive)
- GI50 (HCC 2998): 6.11 µM (inactive)

Structure (SMILES): COC(=O)[C@]12CC3C=CC1N(C3)C(CBr)c1c2n(S(=O)(=O)c2ccccc2)c2ccccc12 (stereo not given in full)
- GI50 (MCF7): 46.9 µM (inactive)
- GI50 (EKVX): 80 µM (inactive)
- GI50 (U-251): 63 µM (inactive)
- GI50 (UACC-62): 57.3 µM (inactive)
- GI50 (RXF 393): 33.2 µM (inactive)
- GI50 (OVCAR-3): 97.7 µM (inactive)
- GI50 (BT-549): > 100 µM (inactive)
- GI50 (M14): > 100 µM (inactive)
- GI50 (SW-620): > 100 µM (inactive)
- GI50 (786-0): 43 µM (inactive)
- GI50 (SK-OV-3): > 100 µM (inactive)
- GI50 (IGROV-1): 72.9 µM (inactive)
- GI50 (A549): 50.5 µM (inactive)
- GI50 (NCI-H522): 27.9 µM (inactive)
- GI50 (COLO 205): > 100 µM (inactive)
- GI50 (TK-10): > 100 µM (inactive)
- GI50 (ACHN): 48.3 µM (inactive)
- GI50 (SN12C): > 100 µM (inactive)
- GI50 (DU-145): > 100 µM (inactive)
- GI50 (OVCAR-8): 49 µM (inactive)
- GI50 (HCT-116): 47.9 µM (inactive)
- GI50 (SF-295): 42.2 µM (inactive)
- GI50 (HCT-15): 72.8 µM
- GI50 (SK-MEL-5): > 100 µM (inactive)
- GI50 (CCRF-CEM): 47.6 µM (inactive)
- GI50 (SNB-75): 25.9 µM (inactive)
- GI50 (KM12): > 100 µM (inactive)
- GI50 (CAKI-1): 74.6 µM (inactive)
- GI50 (MDA-N): 60.1 µM (inactive)
- GI50 (RPMI-8226): 0.292 µM (active)
- GI50 (OVCAR-4): 38.5 µM (inactive)
- GI50 (SK-MEL-28): > 100 µM (inactive)
- GI50 (NCI-H226): 41.7 µM (inactive)
- GI50 (HT-29): 45.3 µM (inactive)
- GI50 (HOP-62): 92.3 µM (inactive)
- GI50 (MDA-MB-435): 76.2 µM (inactive)
- GI50 (HL-60): 35.1 µM (inactive)
- GI50 (UACC-257): > 100 µM (inactive)
- GI50 (MDA-MB-231): 57.1 µM (inactive)
- GI50 (NCI-H460): 98.6 µM (inactive)
- GI50 (UO-31): > 100 µM (inactive)
- GI50 (LOX IMVI): 43.4 µM (inactive)
- GI50 (OVCAR-5): > 100 µM (inactive)
- GI50 (SK-MEL-2): 79.4 µM (inactive)
- GI50 (NCI-H23): 51.5 µM (inactive)
- GI50 (Malme-3M): 72.9 µM (inactive)
- GI50 (PC-3): 42.8 µM (inactive)
- GI50 (Hs-578T): 39.9 µM (inactive)
- GI50 (NCI/ADR-RES): > 100 µM (inactive)
- GI50 (K562): 0.118 µM (active)
- GI50 (HCC 2998): > 100 µM (inactive)
